Several values for one entry are separate records, joined by “and”; a condition that tells them apart may be missing. Equal values may be shown once.
How the values were obtained:
Format in all cases: cell-based
[1] = test system: Staphylococcus aureus ATCC; experiment: disk diffusion assay, inhibition zone; details: S. aureus; 4 mg/disk; soluble water compound 4
Description: (§1) To evaluate antimicrobial activity of the compound 4, synthesized in our laboratory as novel anti-bacterial and anti-fungal agents, the inhibition zone diameter (mm) and the minimal inhibitory concentration were determined according to (Andrews 2001; Hudzicki 2009). The test carried out on several clinical microorganisms included Gram positive bacteria (Staphylococcus aureus ATCC and Streptococcus mutans ATCC 35668), Gram negative bacteria (Escherichia coli ATCC 25922, Salmonella typhimurium ATCC 14028 and Neisseria meningitides ATCC 1302); yeasts (Candid albicans ATCC 60193, Cryptococcus neoformans Wild strain and Candida parapsilosus ATCC 22019) and molds (Aspergillus fumigatus AUMC 8794, Penicillum chrysogenum AUMC 9476 and Fusarium sp.)
(§2) The clinical microorganisms were cultivated at least three times on suitable culture medium and incubating conditions before susceptibility test. The concentration of microbial inoculation suspensions in sterile sodium chloride solution (0.89%) were adjusted to 0.65 at 620 nm by spectrophotometer. […]
(§3) After that, the disks were dried at 25° C. under sterile conditions by safety biological cabinet. A Mueller-Hinton agar (MHA) (Scharlau Microbiogy, Spain) and a potato dextrose agar (PDA) (Scharlau, Spain) were used to perform antibacterial and antifungal test respectively. The media were prepared according to manufacturer's guidelines. To prepare one liter of MHA and one liter of PDA, 21 grams of MHA and 39 grams of PDA were dissolved in one liter of sterile distilled water, followed by sterilization at 121° C. for 15 minutes by an autoclave (HL-321, Taiwan). The sterilized media were poured in sterile plastic Petri dishes at 50° C. The plates were allowed to let the medium solidify at room temperature. 0.1 ml of microbial inoculation suspensions were spread on dried surface of medium and were kept at 25° C. for 5-10 minutes. The compound 4 and standard antimicrobial drugs discs (Table 1) were dispensed on the surface of inoculated media. The tested bacteria and fungi were incubated at 37±1° C. for 19-22 hours and at 25±1 for 48-72 hours respectively. After the incubation, the diameter of inhibition zone (millimeter) resulting from the biological activity of compound were recorded.

[2] = test system: Cryptococcus neoformans Wild strain; experiment: disk diffusion assay, inhibition zone; details: C. neoformasn; 4 mg/disk; soluble water compound 4
Description: as §1, §2, §3

[3] = test system: Salmonella typhimurium ATCC 14028; experiment: disk diffusion assay, inhibition zone; details: Sa. typhimurium; 4 mg/disk; soluble water compound 4
Description: as §1, §2, §3

[4] = test system: Penicillum chrysogenum AUMC 9476; experiment: disk diffusion assay, inhibition zone; details: P. chrysoginum; 4 mg/disk; soluble water compound 4
Description: as §1, §2, §3

Fusarium sp. = experiment: disk diffusion assay, inhibition zone; details: Fusarium sp.; 4 mg/disk; soluble water compound 4
Description: as §1, §2, §3

[5] = test system: Candid albicans ATCC 60193; experiment: disk diffusion assay, inhibition zone; details: C. albicans; 4 mg/disk; soluble water compound 4
Description: as §1, §2, §3

[6] = test system: Candida parapsilosus ATCC 22019; experiment: disk diffusion assay, inhibition zone; details: C. parasilosus; 4 mg/disk; soluble water compound 4
Description: as §1, §2, §3

[7] = test system: Streptococcus mutans ATCC 35668; experiment: disk diffusion assay, inhibition zone; details: S. mutans
Description: as §1, §2, §3

[8] = test system: Aspergillus fumigatus AUMC 8794; experiment: disk diffusion assay, inhibition zone; details: A. fumigatus; 4 mg/disk; soluble water compound 4
Description: as §1, §2, §3

[9] = test system: Escherichia coli ATCC 25922; experiment: disk diffusion assay, inhibition zone; details: E. coli; 4 mg/disk; soluble water compound 4
Description: as §1, §2, §3

[10] = test system: Neisseria meningitides ATCC 1302; experiment: disk diffusion assay, inhibition zone; details: N. meningitides
[11] = test system: MCF-7 human breast cancer cell lines; experiment: in vitro anti-cancer test; details: water soluble form, 4 to 0.008 mg/mL
Description: Biological activity of compound 4 (water soluble form) as anticancer in human breast cancer was evaluated according to (Kumar et al. 2014). Roswell Park Memorial Institute (RPMI)-1640 medium (Sigma, USA) were prepared according to manufacturer's guidelines and supplemented fetal bovine serum (10%). To avoid a microbial contamination, a streptomycin and penicillin were added to RPMI-1640. Several concentrations ranging from 4 to 0.008 mg/mL of compound 4 were tested.

[12] = 4 mg/disk, soluble water compound 4

`CCOC(=O)CSC(=S)SCC(=O)OCC` [Compound 4, diethyl 2,2′-(thiocarbonylbis(sulfanediyl))diacetate] was tested, and the Inhibition zone diameter [1] was 10.6 ± 0.5 F* mm, the Inhibition zone diameter [2] was 30 mm and 30 ± 1 B mm and the Inhibition zone diameter [3] was 8.6 ± 0.5 F mm. The Inhibition zone diameter [4] was 30.3 ± .5 B mm, the Inhibition zone diameter (Fusarium sp.) was 30 ± 1 B mm and the Inhibition zone diameter [5] was 20 ± 1 D mm. The Inhibition zone diameter [6] was 13 ± 1 E mm, the “biological activity, in words” value [7] was “very good” and the Inhibition zone diameter [7, 12] was 20 ± 1 D mm. For the same compound, the Inhibition zone diameter [8] was 34.6 ± 0.5 A mm, the Inhibition zone diameter [9] was 11.6 ± 0.5 E mm and the “biological activity, in words” value [10] was “very good”. For the same compound, the Inhibition zone diameter [10, 12] was 22.6 ± 0.5 C mm and the “biological activity as anticancer” value [11] was “no biological activity”.

From US9988348B1, “Synthesis and antimicrobial use of a trithiocarbonate derivative” (KING SAUD UNIVERSITY, priority 2017, dated 2018)
